Experimental data taken from the supplement of paper PMC10307832.

What was measured:
IDH-C35 + Tozasertib = compound: Cc1ccccc1C(C(=O)NC1CCCCC1)N(C(=O)Cn1ccnc1C)c1cccc(F)c1 [IDH-C35] + Cc1cc(Nc2cc(N3CCN(C)CC3)nc(Sc3ccc(NC(=O)C4CC4)cc3)n2)n[nH]1 [Tozasertib] (partner 0.1 µM); experiment: relative viability (nuclei count vs DMSO), 5 days (fraction); higher = more cells survive
Summary of the method: (§1)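 Each reported value is a median over duplicate plates. It expresses relative viability: treated-well nuclei count divided by vehicle-well nuclei count. Lung cancer cell lines in 1536-well plates were dosed by pin tool a day after seeding, alone with one drug or with a fixed anchor-drug dose plus five library-drug doses (not always all listed) in √10 steps, and nuclei were counted after 5 days.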

[1] = compound: CC1=C(C(=NN1)C)CC2=C(C3=C(S2)N(C(=O)N(C3=O)C)CC(C)C)C(=O)N4C[C@@H](CO4)O + COc1cc2c(Oc3ccc(NC(=O)C4(C(=O)Nc5ccc(F)cc5)CC4)cc3F)ccnc2cc1OCCCN1CCOCC1 [Foretinib] (partner 0.25 µM); experiment: as above
Summary of the method: as §1

Cell Line	relative viability (IDH-C35 + Tozasertib; first compound 0.08 µM)	relative viability (IDH-C35 + Tozasertib; first compound 0.253 µM)	relative viability (IDH-C35 + Tozasertib; first compound 0.8 µM)	relative viability (IDH-C35 + Tozasertib; first compound 2.53 µM)	relative viability (IDH-C35 + Tozasertib; first compound 8 µM)	relative viability ([1]; first compound 0.0025 µM)	relative viability ([1]; first compound 0.007906 µM)	relative viability ([1]; first compound 0.025 µM)	relative viability ([1]; first compound 0.07906 µM)	relative viability ([1]; first compound 0.25 µM)
NCI-H1975	0.782	0.898	0.673	0.672	0.691	0.946	1.06	1	0.949	0.984
CAL-12T	0.307	0.306	0.303	0.379	0.301	1.08	1.3	1.05	1.25	1.17
NCI-H1623	0.414	0.423	0.464	0.452	0.431	0.985	0.788	0.997	0.805	0.749
HCC-44	1.06	0.906	1	0.903	0.96	–	–	–	–	–
EKVX	0.422	0.373	0.361	0.378	0.344	0.884	0.736	0.69	0.732	0.744
NCI-H1651	0.696	0.737	0.643	0.632	0.683	0.708	0.832	0.735	0.821	0.815
NCI-H1944	0.249	0.248	0.246	0.253	0.265	0.985	1.02	0.898	1.02	0.889
NCI-H1703	–	–	–	–	–	0.38	0.391	0.386	0.329	0.362
Calu-6	–	–	–	–	–	0.984	0.813	0.715	0.809	0.897
EBC-1	–	–	–	–	–	0.117	0.107	0.12	0.107	0.103
SW 1573	0.187	0.14	0.239	0.194	0.184	0.958	1.05	0.86	0.74	0.964
A-427	0.216	0.221	0.215	0.206	0.182	1.29	1.22	0.937	1.11	1.14
NCI-H2347	0.476	0.599	0.497	0.657	0.418	1.23	1.13	0.716	0.831	0.881
NCI-H1355	0.538	0.606	0.601	0.526	0.502	1.04	1.11	1	1.02	1.12
NCI-H358	0.099	0.112	0.112	0.0888	0.0934	0.636	0.76	0.664	0.766	0.791
PC-3 [JPC-3]	0.803	0.898	0.861	0.852	0.927	1.14	1.01	1.05	1.02	1.08
NCI-H2228	0.319	0.221	0.302	0.246	0.203	0.828	1.04	0.734	0.83	1.08
HOP-62	0.394	0.368	0.334	0.382	0.331	1.2	1.09	1.04	1.06	1.09

Cell Line	relative viability (IDH-C35 + Tozasertib; first compound 0.08 µM)	relative viability (IDH-C35 + Tozasertib; first compound 0.253 µM)	relative viability (IDH-C35 + Tozasertib; first compound 0.8 µM)	relative viability (IDH-C35 + Tozasertib; first compound 2.53 µM)	relative viability (IDH-C35 + Tozasertib; first compound 8 µM)	relative viability ([1]; first compound 0.0025 µM)	relative viability ([1]; first compound 0.007906 µM)	relative viability ([1]; first compound 0.025 µM)	relative viability ([1]; first compound 0.07906 µM)	relative viability ([1]; first compound 0.25 µM)
HARA	0.0971	0.135	0.104	–	0.133	1	1.01	0.84	0.656	0.984
NCI-H838	0.249	0.276	0.292	0.281	0.234	1.06	1.04	0.983	0.974	0.99
NCI-H1755	0.587	0.522	0.607	0.671	0.553	0.97	0.996	0.873	0.911	0.897
HCC-78	0.403	0.363	0.388	0.383	0.254	0.579	0.572	0.601	0.527	0.563
IA-LM	–	–	–	–	–	1.25	1.01	1.2	1.25	1.14
NCI-H322M	0.46	0.494	0.466	0.467	0.517	1.07	0.969	1.04	0.977	0.98
NCI-H3122	0.363	0.401	0.394	0.317	0.42	0.936	0.982	0.988	0.99	0.983
COR-L23	0.253	0.174	0.263	0.195	0.158	0.947	1.07	0.8	0.87	0.846
NCI-H2087	0.196	0.23	0.279	–	0.264	1.05	1.05	1.03	0.811	1.07
LC-2-ad	0.472	0.435	0.503	–	0.428	0.897	0.836	0.911	1.06	1.08
NCI-H1915	0.407	0.42	0.438	0.429	0.396	1.18	1.12	1.05	1.01	1.11
NCI-H1793	0.353	0.415	0.329	–	0.296	0.67	0.784	0.732	0.665	0.605
NCI-H2023	0.352	0.343	0.355	0.297	0.248	0.871	0.809	0.959	0.898	1.03
COR-L 105	0.351	0.313	0.386	0.383	0.337	1.1	0.899	0.974	1.03	1.06
RERF-LC-KJ	0.396	0.503	0.489	0.544	0.442	0.866	0.942	0.909	0.886	0.935
LXF-289	0.17	0.173	0.201	0.209	0.166	0.963	0.926	1.02	0.994	1.03
PC-14	0.634	0.542	0.611	0.58	0.557	0.973	0.936	0.941	0.942	1.09
